Experimental data: patent publication US20020106348A1, “Cancer therapeutics involving the administration of 2-methoxyestradiol and an agent that increases intracellular superoxide anion” (priority 2000, published 2002)
Where two headings read alike, the source gives them in different places.

Columns and labels:
SOD = SOD inhibition in vitro (restated, enzyme not specified); format: biochemical; details: restated in discussion
HL-60 [1] = experiment: Apoptosis / nucleosomal DNA fragmentation in HL-60 cells; format: cell-based, human
CLL cells [2] = tested on: CLL cells
[3] = tested on: ML-1, HL-60 and CLL cells; experiment: HPLC analysis of cellular metabolites of [3H]2-ME; format: in vitro ADME, human; details: [3H]2-ME 0.5 μCi/ml, 5 h
Method: (§1) To determine cellular uptake of 2-ME, cells were incubated with 1 μM [^3H]2-ME (0.5 μCi/ml) for 5 h and when washed twice with cold PBS. Radioactivity associated with the cell pellets or the culture medium was quantitated by liquid scintillation counting. 2-ME concentrations were calculated based on the specific radioactivity of [^3H]2-ME, cell number, and the mean cell volume as measured by a Coulter Counter equipped with a 256-Channelyzer. HPLC was used to analyze potential cellular metabolites of 2-ME. Cells were incubated with [^3H]2-ME (0.5 μCi/ml) for 5 h, washed twice with PBS, and then extracted with 50% methanol. The extracts were analyzed by HPLC equipped with a UV detector (284 nm) and an on-line liquid scintillation counter, using a μBondapak C18 reversed-phase column and the following running conditions: 1 ml/min; 0-5 min, 100% buffer A (water:acetontrile:acetic acid=59:40:1); 5-17 min, a linear gradient of 0->100% buffer B (water:acetontrile:acetic acid=39:60:1); 17-30 min, 100% B.

CML cells = experiment: MTT assay, primary CML cells; format: cell-based, human; details: 30 μM, 3 patients
CuZnSOD (SOD1) mRNA = experiment: cDNA microarray assay of gene expression; format: cell-based, human; details: 5 h after 2-ME incubation; normalized by three internal standards
Excerpt: The Atlas™ Human cDNA Expression Array I and the Atlas™ Human Cancer cDNA Expression Array (ClonTech Laboratories, Inc.) were used in this study. One microgram of mRNA isolated from the control or drug-treated cells was converted to radioactive cDNA by reverse transcription in the presence of [α-^32P]-dATP. The ^32P-labeled cDNA was then denatured and hybridized to the eDNA expression arrays according to the procedures recommended by the manufacturer. The radioactivity on the membranes was quantified by a phosphoimager.

HL-60 cells [4] = tested on: HL-60 cells
ML-1 cells = experiment: Cellular O2^- by hydroethidine flow cytometry, ML-1 cells; format: cell-based, human; details: ML-1, 1 μM, 5 h; control 4.3
CLL cells [5] = experiment: Cellular O2^- by hydroethidine flow cytometry, CLL cells; format: cell-based, human
Method: The method using hydroethidine to detect O2^− in tissue sections was adapted for quantitation of intracellular O2^− by flow cytometry analysis. This assay is based on the unique chemical properties of hydroethidine, a weak blue fluorescent dye which is selectively converted by O2^− to ethidium with a bright red fluorescence. The control and drug-treated cells (1.5×10^6/sample) were incubated with hydroethidine (20 ng/ml) for 60 min, washed twice with 3 ml PBS, resuspended in 2 ml PBS, and then analyzed within 1 h by flow cytometry, using the red laser channel.

bovine CuZnSOD = target: T1, bovine CuZnSOD (Bos taurus, UniProt P00442); experiment: In vitro SOD activity assay, bovine CuZnSOD; format: biochemical; details: purified enzyme; read-out: IC50, inhibition of bovine CuZnSOD
T1 construct: purchased Boehringer Mannheim
T1 sequence (P00442 whole entry): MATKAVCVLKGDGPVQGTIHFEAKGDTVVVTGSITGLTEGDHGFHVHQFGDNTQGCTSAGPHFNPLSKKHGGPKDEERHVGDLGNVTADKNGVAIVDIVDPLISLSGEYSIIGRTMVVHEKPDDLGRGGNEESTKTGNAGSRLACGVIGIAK
Method: (§2) A spectrophotometric assay was used to determine the effect of 2-methoxyestradiol (2-ME) on SOD activity in vitro with purified enzymes (bovine CuZnSOD from Boehringer Mannheim; human CuZnSOD and E. coli MnSOD from Sigma). The reactions contained 2.5 ml of 50 mM Na2CO3, 0.1 ml of 3 mM xanthine, 0.1 ml of 3 mM EDTA, and 0.1 ml of 0.8 mM XTT (3′-(1-[phenylamino-carbonyl]3,4-tetrazolium)-bis(4-methoxy-6-nitro)benzene-sulfonic acid hydrate), and the indicated concentrations of SOD and 2-ME. Xanthine oxidase (0.1 ml, 64 mU/ml) was added to start the reaction. After incubation at 24° C. for 30 min, the absorbance at 470 nm was measured. The relative activity (RA) of SOD was calculated by the following formula: […]
(§3) where a is the absorbance of reaction without SOD, b is the absorbance of reaction with SOD but without 2-ME, c is the absorbance of reaction with SOD in the presence of 2-ME. All values were subtracted by the background reading of the blank. In separate experiments using nitro blue tetrazolium or cytochrome c as substrates for SOD assay, 2-ME and DMSO (as a solvent for 2-ME) interfered with the calorimetric reaction. These artifacts preclude the use of NBT or cytochrome c as the substrates for measuring the effect of 2-ME on SOD activity. Neither 2-ME nor DMSO affect the calorimetric reaction of XTT.

ML-1 [6] = experiment: Apoptosis / nucleosomal DNA fragmentation in ML-1 cells; format: cell-based, human; details: 1 μM; ML-1 (wt p53)
xanthine oxidase = experiment: Effect on xanthine oxidase; format: biochemical; details: 1-100 μM
E. coli MnSOD = E. coli MnSOD (Escherichia coli, UniProt P00448); experiment: In vitro SOD activity assay, E. coli MnSOD; format: biochemical; details: purified enzyme; read-out: IC50, inhibition of E. coli MnSOD
Chain of E. coli MnSOD (P00448 whole entry): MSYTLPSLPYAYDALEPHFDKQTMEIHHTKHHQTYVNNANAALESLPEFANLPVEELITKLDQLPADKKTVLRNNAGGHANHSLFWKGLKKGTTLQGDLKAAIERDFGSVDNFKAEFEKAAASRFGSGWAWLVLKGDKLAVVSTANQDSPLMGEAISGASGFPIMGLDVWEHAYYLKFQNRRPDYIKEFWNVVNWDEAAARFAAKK
Method: as §2, §3

leukemia cell lines = experiment: Apoptosis induction in leukemia cell lines; format: cell-based, human; details: leukemia cell lines tested
human DNA polymerase α = human DNA polymerase α (Homo sapiens, UniProt P09884); experiment: Effect on DNA polymerase α; format: biochemical; details: 1-100 μM
Chain of human DNA polymerase α (P09884 whole entry): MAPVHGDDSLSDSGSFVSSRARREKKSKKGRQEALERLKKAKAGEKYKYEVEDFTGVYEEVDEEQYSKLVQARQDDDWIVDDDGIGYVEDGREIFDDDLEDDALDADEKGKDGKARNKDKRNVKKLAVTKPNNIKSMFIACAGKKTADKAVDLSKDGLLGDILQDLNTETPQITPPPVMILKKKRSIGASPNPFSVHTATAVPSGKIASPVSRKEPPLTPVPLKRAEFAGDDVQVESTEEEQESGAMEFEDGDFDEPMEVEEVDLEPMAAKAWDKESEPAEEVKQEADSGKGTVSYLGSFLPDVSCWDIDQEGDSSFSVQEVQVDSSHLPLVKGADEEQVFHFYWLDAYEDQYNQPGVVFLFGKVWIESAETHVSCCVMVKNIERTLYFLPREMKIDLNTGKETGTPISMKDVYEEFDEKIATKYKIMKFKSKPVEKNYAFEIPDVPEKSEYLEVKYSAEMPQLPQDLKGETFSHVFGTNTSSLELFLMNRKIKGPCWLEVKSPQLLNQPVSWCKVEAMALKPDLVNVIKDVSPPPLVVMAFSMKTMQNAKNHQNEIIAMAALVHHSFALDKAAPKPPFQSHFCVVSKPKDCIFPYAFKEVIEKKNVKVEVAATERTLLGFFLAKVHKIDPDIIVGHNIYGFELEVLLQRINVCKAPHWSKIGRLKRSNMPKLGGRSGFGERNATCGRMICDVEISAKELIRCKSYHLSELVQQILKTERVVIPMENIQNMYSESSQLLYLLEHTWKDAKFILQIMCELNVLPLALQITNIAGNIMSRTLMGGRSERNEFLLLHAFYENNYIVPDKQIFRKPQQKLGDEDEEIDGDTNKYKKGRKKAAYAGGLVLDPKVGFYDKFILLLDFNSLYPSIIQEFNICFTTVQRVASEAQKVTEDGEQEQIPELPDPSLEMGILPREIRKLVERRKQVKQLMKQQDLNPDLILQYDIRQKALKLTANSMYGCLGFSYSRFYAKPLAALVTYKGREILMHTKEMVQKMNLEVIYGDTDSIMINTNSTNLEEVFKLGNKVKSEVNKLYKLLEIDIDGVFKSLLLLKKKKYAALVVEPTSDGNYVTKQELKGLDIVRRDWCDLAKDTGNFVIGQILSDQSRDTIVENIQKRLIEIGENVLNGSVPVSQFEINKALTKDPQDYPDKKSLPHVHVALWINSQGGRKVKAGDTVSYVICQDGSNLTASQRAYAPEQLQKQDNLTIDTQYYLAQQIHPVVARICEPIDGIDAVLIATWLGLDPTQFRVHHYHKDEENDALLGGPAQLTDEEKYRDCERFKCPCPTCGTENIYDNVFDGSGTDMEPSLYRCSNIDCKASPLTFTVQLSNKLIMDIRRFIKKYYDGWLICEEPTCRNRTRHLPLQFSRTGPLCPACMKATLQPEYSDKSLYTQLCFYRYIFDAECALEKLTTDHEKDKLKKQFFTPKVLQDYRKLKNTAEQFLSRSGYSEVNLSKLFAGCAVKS

SOD1 protein = experiment: Immunoblot of SOD1 protein in ML-1 cells; format: cell-based, human; details: ML-1 cells at 10 h
ML-1 [7] = experiment: MTT assay, ML-1 leukemia cells; format: cell-based; details: Homo sapiens, ML1, ML-1 (wt p53)
ML-1 [8] = experiment: H2O2 generation in cell culture, ML-1 cells; format: cell-based, human
[9] = tested on: bovine alkaline phosphatase; experiment: Effect on alkaline phosphatase (removal of 5'-phosphate from [14C]GMP); format: biochemical; details: 1-100 μM
Raji = experiment: MTT assay, Raji cells; format: cell-based; details: Homo sapiens, Raji (mutant p53)
HL-60 cells [10] = experiment: Cellular O2^- by flow cytometry, HL-60 cells; format: cell-based, human; details: 0.25 μM
HL-60 [11] = experiment: H2O2 generation in cell culture, HL-60 cells; format: cell-based, human
normal lymphocytes = experiment: MTT assay, normal lymphocytes from healthy donors; format: cell-based, human; details: normal lymphocytes from 8 healthy donors; MTT 72 h / 96 h
CEM = experiment: MTT assay, CEM leukemia cells; format: cell-based; details: Homo sapiens, CCRF-CEM, CEM (mutant p53)
[12] = tested on: leukemia cell lines, primary CLL cells, and normal lymphocytes; experiment: Cellular accumulation of [3H]2-ME; format: in vitro ADME, human; details: 1 μM [3H]2-ME, 5-h incubation
Method: as §1

COc1cc2c(cc1O)CC[C@@H]1[C@@H]2CC[C@]2(C)[C@@H](O)CC[C@@H]12 [2-ME, 1,3,5(10)-estratrien-2,3,17b-triol 2 methylether]
IC50 (SOD): ~20 µM
apoptotic morphology and nucleosomal DNA fragmentation (HL-60 [1]; 1 μM, HL-60 (p53−)): Typical apoptotic morphology and nucleosomal DNA fragmentation were observed
DNA fragmentation (apoptosis) in HL-60 cells (HL-60 [1]; estrogen derivatives, FIG. 20): induced DNA fragmentation
cell survival (CLL cells [2]; 30 μM, CLL cells, 31 patients): 32.7%
sensitivity to single agent (CLL cells [2]; 2-ME-resistant CLL cells): insensitive to either drug alone
toxicity to CLL cells versus normal lymphocytes (CLL cells [2]; 10 and 30 μM, p<0.0001): significantly more toxic to CLL cells than to normal lymphocytes
sensitivity to single agent (CLL cells [2]; CLL cells of the two sensitive patients): relatively sensitive
cell survival in CLL cells (CLL cells [2]; FIGS. 6-8, MTT 72-96 h): substantial loss of cell survival
cell survival (CLL cells [2]; primary leukemia cells from a CLL patient, 2-ME alone (FIG. 32)): loss of cell survival
cellular drug metabolites [3]: no significant drug metabolites
cell survival (CML cells): 54.7%
expression of CuZnSOD mRNA, % of the control (CuZnSOD (SOD1) mRNA): 236%
rhodamine-123 fluorescence intensity (HL-60 cells [4]; 14 h exposure, control 70-100 arbitrary units): 20-40 units
rhodamine-123 retention (HL-60 cells [4]; by 22 h): almost all the cells had lost their ability to retain rhodamine-123
rhodamine-123 retention (HL-60 cells [4]; first 6 h of incubation): no obvious loss of dye retention
cellular O2^− content (ML-1 cells): 6.3 arbitrary units
O2^− increase (CLL cells [5]; CLL cells, 30 μM): 226±37%
cellular O2^− (CLL cells [5]; primary leukemia cells from a CLL patient, 2-ME alone): significant accumulation of cellular O2^−
IC50 (bovine CuZnSOD): ~20 µM
apoptotic morphology and nucleosomal DNA fragmentation (ML-1 [6]): Typical apoptotic morphology and nucleosomal DNA fragmentation were observed
effect on xanthine oxidase (xanthine oxidase): little effect
IC50 (E. coli MnSOD): ~20 µM
concentrations inducing apoptosis (leukemia cell lines): 1 to 10 µM
effect on DNA polymerase α (human DNA polymerase α): little effect
increase of SOD1 protein (SOD1 protein): 74%
IC50 (ML-1 [7]): < 1 µM
H2O2 production (ML-1 [8]): concentration-dependent decrease of H2O2
effect on alkaline phosphatase [9]: little effect
IC50 (Raji): < 1 µM
cellular O2^− content (HL-60 cells [10]): increase of cellular O2^−
H2O2 production (HL-60 [11]): concentration-dependent decrease of H2O2
cell survival (normal lymphocytes): no apparent loss of cell survival
IC50 (CEM): < 1 µM
intracellular concentrating of drug [12]: approximately 10 fold
